Test results published in patent publication US4474775A, “Pyrazol-4-yl phosphates and insecticidal and acaricidal use” (priority 1979, dated 1984).

How the values were obtained:
Tetranychus urticae = test: Effectiveness against Tetranychus urticae (Testing Example 4); type: in vivo; details: decrease rate grade, 500 ppm spray on kidney bean plant; for Efficacy grading, 2nd day: 2nd day after spraying; for Efficacy grading, 7th day: 7th day after spraying
Experimental: Testing Example 4: Effectiveness against Tetranychus urticae
A test compound was processed into an emulsifiable concentrate in accordance with the formulation of Example 6, and diluted with water (with Dyne®, spreading agent, as diluted 3000-fold) to prepare a 500 ppm aqueous solution. Ten female adults of Tetranychus urticae) were infected on the seedling of a kidney bean plant water-cultured in a polyethylene cup, and the cups were placed in a glass chamber (28° C.) for 24 hours, followed by spraying 20 ml of the aqueous solution on the kidney bean plant. After the sprayed cup was placed again in the glass chamber, the number of the adults and larvae living on the leaves was counted on the 2nd and 7th days after spraying. The test was repeated twice, and the test results are tabulated in Table 5 in terms of the efficacy grading as determined by calculating a decrease rate by the following equation:
Decrease rate (%)=[(number of mites tested-number of larvae living on the day of inspection)/(number of mites tested)]×100

[1] = Oral acute toxicity in mice (Toxicological Test); details: mouse, in vivo, five-week aged ddY-SLC strained male mice
Excerpt: Below tabulated are the oral acute toxicity values obtained with five-week aged, ddY-SLC strained male mice: […]

Spodoptera litura = test: Effectiveness against Spodoptera litura (Testing Example 2); type: in vivo; details: second-instar larvae, 500 ppm spray on soybean, 28° C., 24 hours
Experimental: Testing Example 2: Effectiveness against Spodoptera litura
Twenty milliliters of a 500 ppm, water-diluted solution (with Dyne® Takeda Chem. Ind. Ltd., spreading agent, as diluted 3000-fold) of the test compound (the emulsifiable concentrate of Example 6) was sprayed on grown seedlings (10 days after germination) of soybean plant water-cultured in a polyethylene cup by the use of a spray gun (nozzle pressure of 1 kg/cm^2 gauge) in a spraying chamber. 2 hours after spraying, two main leaves of soybean plant were cut off and were placed into two cups (6 cm in diameter and 4 cm in depth), respectively, and ten second-instar larvae of Spodoptera litura were liberated. The cups were left in the room (28° C.) for 24 hours, and the dead larvae were counted.

Laodelphax striatellus [2] = test: Effectiveness against Laodelphax striatellus, third-instar larvae, root dip (Testing Example 1 (a)); type: in vivo; details: 40 ppm emulsifiable concentrate dilution, root dip 2 hours, 28° C., 24 hours, read-out: Mortality (I)
Experimental: (§1) Testing Example 1: Effectiveness against Laodelphax striatellus
(a) A test compound was processed into an emulsifiable concentrate in accordance with the formulation of Example 6, followed by diluting with water to prepare a treating solution of a 40 ppm concentration. 2.5 ml of the treating solution was placed into a test tube (with 1.7 cm of diameter, 4 cm deep), in which three seedlings of a paddy-rice plant (on the 7th day after germination) were allowed to stand so their root portions were dipped into the solution for 2 hours. The seedlings were then transferred into a test tube having 1 ml water placed in the bottom, and ten third-instar larvae of Laodelphax striatellus were released. After allowing the test tube to stand in the room (28° C.) for 24 hours, the dead larvae were counted. The test is repeated twice, and the test results are tabulated, in terms of mortality, in Table 2 (I).

Laodelphax striatellus [3] = test: Effectiveness against Laodelphax striatellus, adults, dust on paddy-rice plant (Testing Example 1 (b)); type: in vivo; details: small brown planthopper, adults on dusted rice, 24 h
Experimental: as §1
(b) A test compound was processed into a dust preparation in accordance with the formulation of Example 8, and […] of the preparation was dusted on the potted paddy-rice plant (1/5,000 a) by the Berger Duster method. After dusting, leaves (15 cm long) of the paddy rice were cut off and were placed in a test tube containing 1 ml of water in the bottom, and ten adults of Laodelphax striatellus were released therein. After allowing the test tube to stand in the room (28° C.) for 24 hours, the dead insects were counted.

| Structure (SMILES) | Efficacy grading, 2nd day (Tetranychus urticae) | Efficacy grading, 7th day (Tetranychus urticae) | LD50 [1] [mg/kg] | mortality at 500 ppm (Spodoptera litura) [%] | mortality at 40 µg/mL (Laodelphax striatellus [2]) [%] | Mortality (II) (Laodelphax striatellus [3]) [%] |
| --- | --- | --- | --- | --- | --- | --- |
| CCOP(=S)(OCC)Oc1cnn(-c2ccccc2C)c1 [compound 21] | 3 (Not less than 90) | 0 (Not more than 20) | > 300 | – | – | – |
| CCCSP(=S)(OCC)Oc1cnn(-c2ccc(Cl)cc2Cl)c1 (stereo not shown) [compound 30] | 3 (Not less than 90) | 3 (Not less than 90) | > 300 | 100 | – | – |
| CCCOP(=S)(OCC)Oc1cn(-c2ccccc2)nc1C(=O)OCC (stereo not shown) [compound 6] | – | – | > 300 | – | 97 | 70 |
| CCCSP(=O)(OCC)Oc1cnn(-c2ccc(C)cc2)c1 (stereo not shown) [compound 23] | 3 (Not less than 90) | 3 (Not less than 90) | 50 to 300 | 100 | – | – |
| CCCSP(=S)(OCC)Oc1cnn(-c2cc(Cl)c(Cl)cc2Cl)c1 (stereo not shown) [compound 43] | 3 (Not less than 90) | 3 (Not less than 90) | > 300 | 100 | 85 | 40 |
| CCCSP(=S)(OCC)Oc1cnn(-c2ccc(Cl)c(Cl)c2)c1 (stereo not shown) [compound 32] | 3 (Not less than 90) | 3 (Not less than 90) | > 300 | 100 | – | – |
| CCCSP(=O)(OCC)Oc1cnn(-c2cc(Cl)c(Cl)cc2Cl)c1 (stereo not shown) [compound 42] | 3 (Not less than 90) | 3 (Not less than 90) | > 300 | 100 | 100 | 40 |
| CCCSP(=O)(OCC)Oc1cnn(-c2ccc(Cl)cc2F)c1 (stereo not shown) [compound 37] | 3 (Not less than 90) | 3 (Not less than 90) | > 300 | 100 | 100 | 90 |
| CCCSP(=O)(OCC)Oc1cnn(-c2ccc(CCC)cc2)c1 (stereo not shown) [compound 24] | 3 (Not less than 90) | 3 (Not less than 90) | > 300 | 100 | 85 | 50 |
| CCCSP(=O)(OCC)Oc1cnn(-c2ccc(I)cc2)c1 (stereo not shown) [compound 20] | 3 (Not less than 90) | 3 (Not less than 90) | > 300 | 100 | 100 | 65 |
| CCCSP(=S)(OCC)Oc1cnn(-c2cccc(C(F)(F)F)c2)c1 (stereo not shown) [compound 28] | – | – | > 300 | 100 | – | – |
| CCCSP(=O)(OCC)Oc1cnn(-c2ccc3c(c2)OCO3)c1 (stereo not shown) [compound 41] | 3 (Not less than 90) | 3 (Not less than 90) | 50 to 300 | 100 | – | – |
| CCCSP(=O)(OCC)Oc1cnn(-c2cccc(C(F)(F)F)c2)c1 (stereo not shown) [compound 27] | – | – | 50 to 300 | 100 | – | – |
| CCCSP(=S)(OCC)Oc1cnn(-c2ccc(F)cc2)c1 (stereo not shown) [compound 19] | 3 (Not less than 90) | 3 (Not less than 90) | > 300 | 100 | – | – |
| CCOP(=S)(OCC)Oc1cnn(-c2ccc(Cl)cc2)c1 [compound 15] | 3 (Not less than 90) | 0 (Not more than 20) | > 300 | – | – | – |
| CCOP(=S)(OCC)Oc1cnn(-c2ccccc2Cl)c1 [compound 11] | 3 (Not less than 90) | 0 (Not more than 20) | > 300 | – | – | – |

| Structure (SMILES) | Efficacy grading, 2nd day (Tetranychus urticae) | Efficacy grading, 7th day (Tetranychus urticae) | LD50 [1] [mg/kg] | mortality at 500 ppm (Spodoptera litura) [%] | mortality at 40 µg/mL (Laodelphax striatellus [2]) [%] | Mortality (II) (Laodelphax striatellus [3]) [%] |
| --- | --- | --- | --- | --- | --- | --- |
| CCCSP(=S)(OCC)Oc1cn(-c2ccccc2)nc1C(=O)OCC (stereo not shown) [compound 8] | 3 (Not less than 90) | 0 (Not more than 20) | > 300 | 100 | – | – |
| CCCSP(=O)(OCC)Oc1cnn(-c2cc([N+](=O)[O-])ccc2C)c1 (stereo not shown) [compound 39] | – | – | > 300 | 100 | – | – |
| CCCSP(=S)(OCC)Oc1cnn(-c2ccccc2)c1 (stereo not shown) [Compound No. 5, O-ethyl-O-(1-phenylpyrazol-4-yl)-S-n-propyl phosphorothiolothionate] | 3 (Not less than 90) | 3 (Not less than 90) | > 300 | 100 | – | – |
| CCCSP(=O)(OCC)Oc1cnn(-c2ccc(SC)cc2)c1 (stereo not shown) [compound 26] | – | – | > 300 | 100 | – | – |
| CCCSP(=S)(OCC)Oc1cnn(-c2cc([N+](=O)[O-])ccc2C)c1 (stereo not shown) [compound 40] | – | – | > 300 | 100 | – | – |
| CCCSP(=S)(OCC)Oc1cnn(-c2cccc(Cl)c2)c1 (stereo not shown) [compound 14] | 3 (Not less than 90) | 0 (Not more than 20) | > 300 | 100 | – | – |
| CCCSP(=O)(OCC)Oc1cnn(-c2ccc(Cl)cc2C)c1 (stereo not shown) [compound 38] | 3 (Not less than 90) | 3 (Not less than 90) | > 300 | 100 | – | – |
| CCCSP(=O)(OCC)Oc1cnn(-c2cccc(Cl)c2)c1 (stereo not shown) [compound 13] | 3 (Not less than 90) | 3 (Not less than 90) | > 300 | 100 | 100 | 90 |
| CCCSP(=O)(OCC)Oc1cnn(-c2c(C)cccc2C)c1 (stereo not shown) [compound 36] | 3 (Not less than 90) | 3 (Not less than 90) | > 300 | 100 | – | – |
| CCCSP(=O)(OCC)Oc1cnn(-c2ccc(F)cc2)c1 (stereo not shown) [compound 18] | 3 (Not less than 90) | 3 (Not less than 90) | > 300 | 100 | 100 | 100 |
| CCCSP(=O)(OCC)Oc1cn(-c2ccccc2)nc1C(=O)OCC (stereo not shown) [compound 7] | 3 (Not less than 90) | 3 (Not less than 90) | > 300 | 100 | – | – |
| CCCSP(=O)(OCC)Oc1cnn(-c2ccc(Br)cc2)c1 (stereo not shown) [Compound No. 9] | 3 (Not less than 90) | 3 (Not less than 90) | > 300 | 100 | 100 | 75 |
| CCCSP(=S)(OCC)Oc1cnn(-c2ccc(Cl)cc2)c1 (stereo not shown) [Compound No. 17] | 3 (Not less than 90) | 3 (Not less than 90) | > 300 | 100 | 100 | 35 |
| CCCSP(=S)(OCC)Oc1cnn(-c2ccc(Br)cc2)c1 (stereo not shown) [compound 10] | 3 (Not less than 90) | 3 (Not less than 90) | > 300 | 100 | – | – |
| CCCSP(=O)(OCC)Oc1cnn(-c2ccccc2C)c1 (stereo not shown) [compound 22] | 3 (Not less than 90) | 3 (Not less than 90) | ~300 | 100 | 85 | 63 |
| CCCSP(=O)(OCC)Oc1cnn(-c2ccc(Cl)cc2)c1 (stereo not shown) [Compound No. 16, O-ethyl-O-[1-(4-chlorophenyl)pyrazol-4-yl]-S-n-propyl phosphorothiolate] | 3 (Not less than 90) | 3 (Not less than 90) | > 300 | 100 | 97 | 75 |
